Holding throughout (experiment): relative viability (nuclei count vs DMSO), 5 days (fraction); higher = more cells survive
Compound in the assay “AZD6482 + Linsitinib”: Cc1cc([C@@H](C)Nc2ccccc2C(=O)O)c2nc(N3CCOCC3)cc(=O)n2c1 [AZD6482] + C[C@]1(O)C[C@@H](c2nc(-c3ccc4ccc(-c5ccccc5)nc4c3)c3c(N)nccn32)C1 [Linsitinib] (partner 1 µM)
A digest of the protocol: (§1)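 Lung cancer cell lines, seeded in 1536-well plates, were treated the following day by pin tool with a single drug or with five library-drug doses (not always all listed) in √10 steps on top of a fixed anchor-drug dose. Cells were fixed and nuclei stained in one step after 5 days, and nuclei were counted. Relative viability is the nuclei count for treated wells divided by that for vehicle wells, reported as medians of duplicate plates.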

Compound in assay [1]: COc1cc2nc(N3CCCN(C)CC3)nc(NC3CCN(Cc4ccccc4)CC3)c2cc1OC + CCNC(=O)c1noc(-c2cc(C(C)C)c(O)cc2O)c1-c1ccc(CN2CCOCC2)cc1 [Luminespib] (partner 0.01 µM)
The procedure, abridged: as §1

Compound in assay [2]: COc1cc2nc(N3CCCN(C)CC3)nc(NC3CCN(Cc4ccccc4)CC3)c2cc1OC + O=C(c1cc(Cc2n[nH]c(=O)c3ccccc23)ccc1F)N1CCN(C(=O)C2CC2)CC1 [Olaparib] (partner 8 µM)
A digest of the protocol: as §1

Compound in the assay “AZD6482 + Decitabine”: Cc1cc([C@@H](C)Nc2ccccc2C(=O)O)c2nc(N3CCOCC3)cc(=O)n2c1 [AZD6482] + Nc1ncn([C@H]2C[C@H](O)[C@@H](CO)O2)c(=O)n1 [Decitabine] (partner 2 µM)
The procedure, abridged: as §1

Regarding NCI-H2009, the relative viability in the assay with AZD6482 + Linsitinib (first compound 0.08 µM) turned out to be 0.911; in the assay with AZD6482 + Linsitinib (first compound 0.253 µM), 1.18; in the assay with AZD6482 + Linsitinib (first compound 0.8 µM) it was 1.16; in the assay with AZD6482 + Linsitinib (first compound 2.53 µM), 0.68; with AZD6482 + Linsitinib (first compound 8 µM), 0.795; in assay [1] (first compound 0.2 µM) it was 1.05. The relative viability is 1.08 in assay [1] (first compound 0.6325 µM); 1.06 in assay [1] (first compound 2 µM); 0.937 in assay [1] (first compound 6.325 µM); 0.703 in assay [2] (first compound 0.2 µM); 0.706 in assay [2] (first compound 0.6325 µM); 0.691 in assay [2] (first compound 2 µM). Moreover, the relative viability in assay [2] (first compound 6.325 µM) turned out to be 0.631; in the assay with AZD6482 + Decitabine (first compound 0.08 µM), 0.387; in the assay with AZD6482 + Decitabine (first compound 0.253 µM), 0.373; in the assay with AZD6482 + Decitabine (first compound 0.8 µM) it was 0.361; with AZD6482 + Decitabine (first compound 2.53 µM), 0.321; with AZD6482 + Decitabine (first compound 8 µM), 0.342.

NCI-H2023: the relative viability with AZD6482 + Linsitinib (first compound 0.08 µM) turned out to be 0.373; in the assay with AZD6482 + Linsitinib (first compound 0.253 µM), 0.337; in the assay with AZD6482 + Linsitinib (first compound 0.8 µM), 0.322; with AZD6482 + Linsitinib (first compound 2.53 µM) it was 0.199; with AZD6482 + Linsitinib (first compound 8 µM), 0.234; in assay [1] (first compound 0.2 µM), 0.818. Moreover, the relative viability in assay [1] (first compound 0.6325 µM) was 0.646; in assay [1] (first compound 2 µM), 0.637; in assay [1] (first compound 6.325 µM) it was 0.134; in assay [2] (first compound 0.2 µM), 0.424; in assay [2] (first compound 0.6325 µM), 0.476; in assay [2] (first compound 2 µM), 0.48. Besides, the relative viability in assay [2] (first compound 6.325 µM) turned out to be 0.177; in the assay with AZD6482 + Decitabine (first compound 0.08 µM), 0.226; with AZD6482 + Decitabine (first compound 0.253 µM), 0.185; in the assay with AZD6482 + Decitabine (first compound 0.8 µM) it was 0.214; with AZD6482 + Decitabine (first compound 2.53 µM), 0.269; in the assay with AZD6482 + Decitabine (first compound 8 µM) it was 0.179.

Consider NCI-H2085, for which the relative viability with AZD6482 + Linsitinib (first compound 0.08 µM) amounted to 0.453; with AZD6482 + Linsitinib (first compound 0.253 µM), 0.422; in the assay with AZD6482 + Linsitinib (first compound 0.8 µM) it was 0.327; with AZD6482 + Linsitinib (first compound 2.53 µM), 0.26; in the assay with AZD6482 + Linsitinib (first compound 8 µM) it was 0.467; in assay [1] (first compound 0.2 µM), 0.458. Also, the relative viability in assay [1] (first compound 0.6325 µM) is 0.393; in assay [1] (first compound 2 µM) it was 0.373; in assay [1] (first compound 6.325 µM), 0.404; in assay [2] (first compound 0.2 µM), 0.775; in assay [2] (first compound 0.6325 µM) it was 0.82; in assay [2] (first compound 2 µM) it was 0.869. The relative viability in assay [2] (first compound 6.325 µM) came to 0.785; with AZD6482 + Decitabine (first compound 0.08 µM), 0.485; with AZD6482 + Decitabine (first compound 0.253 µM), 0.456; with AZD6482 + Decitabine (first compound 0.8 µM) it was 0.471; with AZD6482 + Decitabine (first compound 2.53 µM), 0.357; with AZD6482 + Decitabine (first compound 8 µM) it was 0.403.

In the case of NCI-H2087, the relative viability in the assay with AZD6482 + Linsitinib (first compound 0.08 µM) was determined as 0.902; in the assay with AZD6482 + Linsitinib (first compound 0.253 µM), 0.929; in the assay with AZD6482 + Linsitinib (first compound 0.8 µM) it was 1.09; with AZD6482 + Linsitinib (first compound 2.53 µM), 0.815; with AZD6482 + Linsitinib (first compound 8 µM), 0.964; in assay [1] (first compound 0.2 µM), 0.188. Besides, the relative viability came out at 0.162 in assay [1] (first compound 0.6325 µM); 0.364 in assay [1] (first compound 2 µM); 0.136 in assay [1] (first compound 6.325 µM); 0.633 in assay [2] (first compound 0.2 µM); 0.615 in assay [2] (first compound 0.6325 µM); 0.706 in assay [2] (first compound 2 µM). Besides, the relative viability in assay [2] (first compound 6.325 µM) is 0.594; in the assay with AZD6482 + Decitabine (first compound 0.08 µM), 0.245; with AZD6482 + Decitabine (first compound 0.253 µM), 0.232; with AZD6482 + Decitabine (first compound 0.8 µM) it was 0.266; with AZD6482 + Decitabine (first compound 2.53 µM) it was 0.208; with AZD6482 + Decitabine (first compound 8 µM), 0.215.

The values are drawn from the supplement of paper PMC10307832.
